“And” between values parts separate entries of the source, which are not always exact repeats. Equal entries are not always repeated.
What was measured:
[1] = tested on: RPE1 cells; experiment: Cell growth assay (IncuCyte confluence over 72 h); assay type: cell-based
Method: Cell growth assay: Cell confluence (phase) from RPE1 (hTERT RPE-1, ATCC CLR_4000) or U2OS (ATCC, HTB-96) cell lines were monitored over time with the IncuCyte S3 (Sartiorius, Germany) in 384-well plates in 50 ul DMEM media, supplemented with 10% Fetal Bovine Serum (FBS) 1% penicillin/Streptomycin and incubated 24 h before treatment. Experiment was performed as described in Cano-Franco et al.. 50 μl of media containing either 2× final concentration of indicated compounds in or control compounds (final conc.: 0.1% DMSO, 250 nM Torin1, 200 ng/mL Bafilomycin) were added and images were taken every two hours over 72 h. Cell confluence is represented as % of area covered by cells. Each data point represents the average ratio or confluence obtained from three individual wells of the plate.

[2] = biological target: LC3A (Homo sapiens, UniProt Q9H492); experiment: FP assay with Cy5-labelled p62 LIR tracer (protein titration and tracer displacement); assay type: binding; settings: for FP assay result (normalised FP signal): replicates, listed as TH152

In the case of `O=C1Nc2ccc(Br)cc2C1=Cc1cc(O)c(O)c(Br)c1` [compound 1], the RPE1 cell growth ([1]; 100 nM, 10 h, listed as AN1) is reported as 30 and 17 and 26, the RPE1 cell growth ([1]; 100 nM, 12 h, listed as AN1) is reported as 33 and 18 and 27 and the RPE1 cell growth ([1]; 100 nM, 14 h, listed as AN1) is reported as 37 and 19 and 27. For the same molecule, the RPE1 cell growth ([1]; 100 nM, 16 h, listed as AN1) was 37 and 22 and 30, the RPE1 cell growth ([1]; 100 nM, 18 h, listed as AN1) was 41 and 22 and 30 and the RPE1 cell growth ([1]; 100 nM, 20 h, listed as AN1) was 42 and 22. For the same molecule, the RPE1 cell growth ([1]; 500 nM, 10 h, listed as AN1) was 40 and 23 and 25, the RPE1 cell growth ([1]; 500 nM, 12 h, listed as AN1) was 43 and 24 and 26 and the RPE1 cell growth ([1]; 500 nM, 14 h, listed as AN1) was 44 and 25 and 28. For the same molecule, the RPE1 cell growth ([1]; 500 nM, 16 h, listed as AN1) was 47 and 29 and 30, the RPE1 cell growth ([1]; 500 nM, 18 h, listed as AN1) was 49 and 29 and 32 and the RPE1 cell growth ([1]; 1 uM, 10 h, listed as AN1) was 23 and 42 and 25. For the same molecule, the RPE1 cell growth ([1]; 1 uM, 12 h, listed as AN1) was 25 and 45 and 28, the RPE1 cell growth ([1]; 1 uM, 14 h, listed as AN1) was 26 and 48 and 29 and the RPE1 cell growth ([1]; 1 uM, 16 h, listed as AN1) was 29 and 49 and 32. For the same molecule, the RPE1 cell growth ([1]; 1 uM, 18 h, listed as AN1) was 30 and 50 and 34, the RPE1 cell growth ([1]; 1 uM, 20 h, listed as AN1) was 32 and the RPE1 cell growth ([1]; 3 uM, 10 h, listed as AN1) was 43 and 32 and 29. For the same molecule, the RPE1 cell growth ([1]; 3 uM, 12 h, listed as AN1) was 45 and 37 and 31, the RPE1 cell growth ([1]; 3 uM, 14 h, listed as AN1) was 48 and 37 and 32 and the RPE1 cell growth ([1]; 3 uM, 16 h, listed as AN1) was 50 and 39 and 35. For the same molecule, the RPE1 cell growth ([1]; 3 uM, 18 h, listed as AN1) was 53 and 40 and 36, the RPE1 cell growth ([1]; 3 uM, 20 h, listed as AN1) was 52 and 41 and 37 and the RPE1 cell growth ([1]; 5 uM, 10 h, listed as AN1) was 47 and 35. The RPE1 cell growth ([1]; 5 uM, 12 h, listed as AN1) was 49 and 38, the RPE1 cell growth ([1]; 5 uM, 14 h, listed as AN1) was 53 and 38 and 42 and the RPE1 cell growth ([1]; 5 uM, 16 h, listed as AN1) was 55 and 41 and 44. For the same molecule, the RPE1 cell growth ([1]; 5 uM, 18 h, listed as AN1) was 57 and 42 and 46, the RPE1 cell growth ([1]; 5 uM, 20 h, listed as AN1) was 56 and 45 and 49 and the RPE1 cell growth ([1]; 10 uM, 10 h, listed as AN1) was 47 and 35 and 32. The RPE1 cell growth ([1]; 10 uM, 12 h, listed as AN1) was 51 and 37 and 33, the RPE1 cell growth ([1]; 10 uM, 14 h, listed as AN1) was 53 and 39 and 36 and the RPE1 cell growth ([1]; 10 uM, 16 h, listed as AN1) was 55 and 43 and 35. The RPE1 cell growth ([1]; 10 uM, 18 h, listed as AN1) was 56 and 38 and 37, the RPE1 cell growth ([1]; 10 uM, 20 h, listed as AN1) was 54 and 41 and 38 and the “effect on cell growth (confluence)” value ([1]; RPE1, 72 h) was “high dosage effects”.
In the case of `O=c1cc(-c2ccccc2)c2c(O)cc(O)cc2o1` [compound 2], the RPE1 cell growth ([1]; 100 nM, 0 h, listed as AN2) is reported as 20 and 12 and 15, the RPE1 cell growth ([1]; 100 nM, 2 h, listed as AN2) is reported as 24 and 13 and 16 and the RPE1 cell growth ([1]; 100 nM, 4 h, listed as AN2) is reported as 26 and 14 and 18. For the same molecule, the RPE1 cell growth ([1]; 100 nM, 6 h, listed as AN2) was 28 and 15 and 18, the RPE1 cell growth ([1]; 100 nM, 8 h, listed as AN2) was 30 and 15 and 19 and the RPE1 cell growth ([1]; 100 nM, 10 h, listed as AN2) was 32 and 17. For the same molecule, the RPE1 cell growth ([1]; 500 nM, 0 h, listed as AN2) was 22 and 20, the RPE1 cell growth ([1]; 500 nM, 2 h, listed as AN2) was 27 and 18 and 21 and the RPE1 cell growth ([1]; 500 nM, 4 h, listed as AN2) was 29 and 19 and 24. The RPE1 cell growth ([1]; 500 nM, 6 h, listed as AN2) was 32 and 20 and 24, the RPE1 cell growth ([1]; 500 nM, 8 h, listed as AN2) was 35 and 21 and 25 and the RPE1 cell growth ([1]; 1 uM, 0 h, listed as AN2) was 17 and 22 and 23. For the same molecule, the RPE1 cell growth ([1]; 1 uM, 2 h, listed as AN2) was 19 and 26 and 23, the RPE1 cell growth ([1]; 1 uM, 4 h, listed as AN2) was 22 and 28 and 26 and the RPE1 cell growth ([1]; 1 uM, 6 h, listed as AN2) was 22 and 31 and 24. The RPE1 cell growth ([1]; 1 uM, 8 h, listed as AN2) was 24 and 34 and 27, the RPE1 cell growth ([1]; 1 uM, 10 h, listed as AN2) was 25 and the RPE1 cell growth ([1]; 3 uM, 0 h, listed as AN2) was 24 and 21 and 19. For the same molecule, the RPE1 cell growth ([1]; 3 uM, 2 h, listed as AN2) was 30 and 22 and 21, the RPE1 cell growth ([1]; 3 uM, 4 h, listed as AN2) was 32 and 21 and 24 and the RPE1 cell growth ([1]; 3 uM, 6 h, listed as AN2) was 36 and 22 and 26. The RPE1 cell growth ([1]; 3 uM, 8 h, listed as AN2) was 39 and 24 and 26, the RPE1 cell growth ([1]; 3 uM, 10 h, listed as AN2) was 39 and 27 and 28 and the RPE1 cell growth ([1]; 5 uM, 0 h, listed as AN2) was 22 and 21. For the same molecule, the RPE1 cell growth ([1]; 5 uM, 2 h, listed as AN2) was 28 and 21 and 24, the RPE1 cell growth ([1]; 5 uM, 4 h, listed as AN2) was 32 and 22 and 27 and the RPE1 cell growth ([1]; 5 uM, 6 h, listed as AN2) was 35 and 24 and 29. The RPE1 cell growth ([1]; 5 uM, 8 h, listed as AN2) was 37 and 24 and 30, the RPE1 cell growth ([1]; 5 uM, 10 h, listed as AN2) was 38 and 26 and 32 and the RPE1 cell growth ([1]; 10 uM, 0 h, listed as AN2) was 27 and 24 and 19. For the same molecule, the RPE1 cell growth ([1]; 10 uM, 2 h, listed as AN2) was 31 and 27 and 22, the RPE1 cell growth ([1]; 10 uM, 4 h, listed as AN2) was 34 and 26 and 24 and the RPE1 cell growth ([1]; 10 uM, 6 h, listed as AN2) was 37 and 25 and 26. For the same molecule, the RPE1 cell growth ([1]; 10 uM, 8 h, listed as AN2) was 40 and 29 and 27 and the RPE1 cell growth ([1]; 10 uM, 10 h, listed as AN2) was 42 and 31 and 30.
With `CO[C@@H]1[C@@H](OC(N)=O)[C@@H](O)[C@H](Oc2ccc3c(O)c(NC(=O)c4ccc(O)c(CC=C(C)C)c4)c(=O)oc3c2C)OC1(C)C` [compound 12, Novobiocin] the RPE1 cell growth ([1]; 100 nM, 0 h) was 25 and 15, the RPE1 cell growth ([1]; 100 nM, 2 h) was 26 and 15 and 17 and the RPE1 cell growth ([1]; 100 nM, 4 h) was 29 and 17 and 18. The RPE1 cell growth ([1]; 100 nM, 6 h) was 30 and 18, the RPE1 cell growth ([1]; 100 nM, 8 h) was 33 and 18 and 20 and the RPE1 cell growth ([1]; 100 nM, 10 h) was 36 and 19 and 21. The RPE1 cell growth ([1]; 500 nM, 0 h) was 27 and 16 and 18, the RPE1 cell growth ([1]; 500 nM, 2 h) was 32 and 16 and 20 and the RPE1 cell growth ([1]; 500 nM, 4 h) was 32 and 18 and 22. For the same molecule, the RPE1 cell growth ([1]; 500 nM, 6 h) was 35 and 18 and 22, the RPE1 cell growth ([1]; 500 nM, 8 h) was 38 and 20 and 23 and the RPE1 cell growth ([1]; 500 nM, 10 h) was 39 and 21. The RPE1 cell growth ([1]; 1 uM, 0 h) was 18 and 23 and 20, the RPE1 cell growth ([1]; 1 uM, 2 h) was 20 and 26 and 21 and the RPE1 cell growth ([1]; 1 uM, 4 h) was 22 and 28 and 21. For the same molecule, the RPE1 cell growth ([1]; 1 uM, 6 h) was 23 and 32, the RPE1 cell growth ([1]; 1 uM, 8 h) was 26 and 35 and 25 and the RPE1 cell growth ([1]; 1 uM, 10 h) was 27. For the same molecule, the RPE1 cell growth ([1]; 3 uM, 0 h) was 27 and 19 and 22, the RPE1 cell growth ([1]; 3 uM, 2 h) was 31 and 19 and 24 and the RPE1 cell growth ([1]; 3 uM, 4 h) was 33 and 20 and 27. The RPE1 cell growth ([1]; 3 uM, 6 h) was 37 and 22 and 28, the RPE1 cell growth ([1]; 3 uM, 8 h) was 41 and 24 and 30 and the RPE1 cell growth ([1]; 3 uM, 10 h) was 40 and 26 and 31. The RPE1 cell growth ([1]; 5 uM, 0 h) was 24 and 20, the RPE1 cell growth ([1]; 5 uM, 2 h) was 28 and 22 and 24 and the RPE1 cell growth ([1]; 5 uM, 4 h) was 31 and 22 and 26. For the same molecule, the RPE1 cell growth ([1]; 5 uM, 6 h) was 34 and 23 and 27, the RPE1 cell growth ([1]; 5 uM, 8 h) was 36 and 26 and 28 and the RPE1 cell growth ([1]; 5 uM, 10 h) was 35 and 26 and 30. For the same molecule, the RPE1 cell growth ([1]; 10 uM, 0 h) was 22 and 24 and 16, the RPE1 cell growth ([1]; 10 uM, 2 h) was 24 and 19 and the RPE1 cell growth ([1]; 10 uM, 4 h) was 26 and 24 and 20. The RPE1 cell growth ([1]; 10 uM, 6 h) was 29 and 25 and 23, the RPE1 cell growth ([1]; 10 uM, 8 h) was 32 and 28 and 23 and the RPE1 cell growth ([1]; 10 uM, 10 h) was 32 and 28 and 26.
In the case of `CCCCCCC(Sc1nc(Cl)cc(Nc2nc(-c3ccc(C(=O)O)cc3)cs2)n1)C(=O)O` (centres unmarked) [compound 21], the “% tracer bound @LC3A” value ([2]; LC3A tracer displacement, normalized on p62-LIR positive control) is reported as 26%, the “FP assay result (normalised FP signal)” value ([2]; log10 concentration [M] -3.5) is reported as 16.9522 and 16.2308 and 9.017 and 3.246 and the “FP assay result (normalised FP signal)” value ([2]; log10 concentration [M] -4) is reported as 23.8052 and 27.7728 and 15.8702 and 10.8206. The “FP assay result (normalised FP signal)” value ([2]; log10 concentration [M] -4.5) was 40.3968 and 45.4463 and 36.0685 and 29.5762, the “FP assay result (normalised FP signal)” value ([2]; log10 concentration [M] -5) was 79.7115 and 85.4824 and 71.4157 and 74.3012 and the “FP assay result (normalised FP signal)” value ([2]; log10 concentration [M] -5.5) was 90.532 and 94.4995 and 92.3354 (2×). For the same molecule, the “FP assay result (normalised FP signal)” value ([2]; log10 concentration [M] -6) was 102.435 and 103.156 and 95.2209 and 98.4671, the “FP assay result (normalised FP signal)” value ([2]; log10 concentration [M] -6.5) was 94.8602 and 102.795 and 92.3354 and 90.8927 and the “FP assay result (normalised FP signal)” value ([2]; log10 concentration [M] -7) was 102.074 and 100.271 and 99.1885 and 98.4671. The “FP assay result (normalised FP signal)” value ([2]; log10 concentration [M] -7.5) was 103.877 and 100.271 and 96.6637 and 94.4995, the “FP assay result (normalised FP signal)” value ([2]; log10 concentration [M] -8) was 101.353 (2×) and 90.1713 and 94.4995 and the “FP assay result (normalised FP signal)” value ([2]; log10 concentration [M] -8.5) was 95.9423 and 95.2209 and 93.4175 and 99.9098.
